Laboratory results: article PMC11571207, “Stereorandomized Oncocins with Preserved Ribosome Binding and Antibacterial Activity” (Journal of Medicinal Chemistry, 2024)
Where two headings read alike, the source gives them in different places. No end group written: not given here.

How the values were obtained:
E. cloacae = assay: microbe, parasite or virus in culture; conditions: for MIC E. cloacae: supplement CSV
In short: (§1)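 Minimal inhibitory concentrations come from broth microdilution in MH medium, with a top peptide concentration of 64 μg/mL halved serially.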

K. pneumoniae OXA-48 = assay: microbe, parasite or virus in culture; conditions: for MIC K. pneumoniae OXA-48: supplement CSV
In short: as §1

[1] = tested on: P. aeruginosa PA14 2P4 (pmrB); assay: microbe, parasite or virus in culture; conditions: for MIC P. aeruginosa PA14 2P4: supplement CSV
In short: as §1

P. aeruginosa PA14 = assay: microbe, parasite or virus in culture; conditions: for MIC P. aeruginosa PA14: supplement CSV
In short: as §1

P. aeruginosa ZEM-1A = assay: microbe, parasite or virus in culture; conditions: for MIC P. aeruginosa ZEM-1A: supplement CSV
In short: as §1

P. aeruginosa ZEM9A = assay: microbe, parasite or virus in culture; conditions: for MIC P. aeruginosa ZEM9A: supplement CSV
In short: as §1

E. coli BW25113 WT = conditions: Table S1, 16-20 h at 37 °C
In short: (§2)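 Log-phase cells, ~5∙10^5 CFU/mL, were exposed to peptide serially halved from 64 μg/mL in full or 12.5% MH medium (pH 7.4) at 37 °C for 16-20 h. The sbmA::kan strain was precultured with 25 mg/L kanamycin. The lowest concentration without visible growth, with MTT added, was taken as MIC.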

[2] = tested on: E. coli BW25113 sbmA::kan; conditions: Table S1, sbmA::kan mutant, 16-20 h at 37 °C
In short: as §2

[3] = tested on: P. aeruginosa PA14 4.13 (phoQ); conditions: for MIC P. aeruginosa PA14 4.13: supplement CSV
[4] = tested on: P. aeruginosa PA14 4.18 (pmrB); conditions: for MIC P. aeruginosa PA14 4.18: supplement CSV
human red blood cells = assay: Hemolysis assay, minimum hemolytic concentration
[5] = polymyxin B resistant strain, 12.5% MHB pH 7.4, 16–20 h at 37 °C
[6] = polymyxin B resistant strain, full MHB pH 7.4, 16–20 h at 37 °C
[7] = 12.5% Müller-Hinton medium pH 7.4
[8] = full Müller-Hinton medium pH 7.4

VDKPPYLPRPRPPRRIYNR [sr14Nterm-Onc] (VDKPPYLPRPRPPRRIYNR-NH2; also: residues 1-14 stereorandomized (1:1 L/D mixture))
>1000 µg/mL: Haemolysis on hRBC, MHC (human red blood cells; 2.5% human red blood cells (final) in 10 mM phosphate, 150 mM NaCl, pH 7.4, 25 °C, 4 h, visual inspection) | MHC human red blood cells (human red blood cells; supplement CSV)
>64/>64 ^c μg/mL: MIC P. aeruginosa ZEM-1A, 12.5% MHB (P. aeruginosa ZEM-1A; clinical isolate, 12.5% MHB pH 7.4, 16–20 h at 37 °C, cells marked c: single measurement (in duplicates)) | MIC P. aeruginosa ZEM-1A, full MHB (P. aeruginosa ZEM-1A; clinical isolate, full MHB pH 7.4, 16–20 h at 37 °C, cells marked c: single measurement (in duplicates))
> 64 µg/mL: MIC E. cloacae, full MHB (E. cloacae; full MHB pH 7.4, 16–20 h at 37 °C) | MIC P. aeruginosa PA14 2P4 (pmrB), full MHB [1, 6] | MIC E. coli BW25113 WT, Full MH (E. coli BW25113 WT; [8]) | MIC E. coli BW25113 SbmA-, Full MH [2, 8] | MIC P. aeruginosa PA14 4.13 (phoQ), full MHB [3, 6] | MIC P. aeruginosa PA14 4.18 (pmrB), full MHB [4, 6]
64 µg/mL: MIC P. aeruginosa PA14 (P. aeruginosa PA14; 12.5% MH pH 7.4) | MIC P. aeruginosa ZEM9A (P. aeruginosa ZEM9A; 12.5% MH pH 7.4)
8 µg/mL: MIC E. cloacae, 12.5% MHB (E. cloacae; 12.5% MHB pH 7.4, 16–20 h at 37 °C) | MIC E. cloacae (E. cloacae; 12.5% MH pH 7.4)
>64/>64 μg/mL: MIC K. pneumoniae OXA-48, 12.5% MHB (K. pneumoniae OXA-48; carbapenem-resistant, 12.5% MHB pH 7.4, 16–20 h at 37 °C) | MIC K. pneumoniae OXA-48, full MHB (K. pneumoniae OXA-48; carbapenem-resistant, full MHB pH 7.4, 16–20 h at 37 °C)
16 µg/mL: MIC P. aeruginosa PA14 2P4 (pmrB), 12.5% MHB [1, 5] | MIC P. aeruginosa PA14 2P4 ([1]; 12.5% MH pH 7.4) | MIC E. coli BW25113 WT, 12.5% MH (E. coli BW25113 WT; [7]) | MIC E. coli BW25113 SbmA-, 12.5% MH [2, 7]
32 µg/mL: MIC P. aeruginosa PA14 4.13 (phoQ), 12.5% MHB [3, 5] | MIC P. aeruginosa PA14 4.13 ([3]; 12.5% MH pH 7.4) | MIC P. aeruginosa PA14 4.18 (pmrB), 12.5% MHB [4, 5] | MIC P. aeruginosa PA14 4.18 ([4]; 12.5% MH pH 7.4)
>64/64 μg/mL: MIC P. aeruginosa PA14, 12.5% MHB (P. aeruginosa PA14; 12.5% MHB pH 7.4, 16–20 h at 37 °C, two different duplicate MIC determinations) | MIC P. aeruginosa PA14, full MHB (P. aeruginosa PA14; full MHB pH 7.4, 16–20 h at 37 °C, two different duplicate MIC determinations) | MIC P. aeruginosa ZEM9A, 12.5% MHB (P. aeruginosa ZEM9A; clinical isolate, 12.5% MHB pH 7.4, 16–20 h at 37 °C) | MIC P. aeruginosa ZEM9A, full MHB (P. aeruginosa ZEM9A; clinical isolate, full MHB pH 7.4, 16–20 h at 37 °C)
>64 µg/mL: MIC E. cloacae (E. cloacae; full MH pH 7.4) | MIC K. pneumoniae OXA-48 (K. pneumoniae OXA-48; 12.5% MH pH 7.4) | MIC K. pneumoniae OXA-48 (K. pneumoniae OXA-48; full MH pH 7.4) | MIC P. aeruginosa PA14 2P4 ([1]; full MH pH 7.4) | MIC P. aeruginosa PA14 (P. aeruginosa PA14; full MH pH 7.4) | MIC P. aeruginosa ZEM-1A (P. aeruginosa ZEM-1A; 12.5% MH pH 7.4) | MIC P. aeruginosa ZEM-1A (P. aeruginosa ZEM-1A; full MH pH 7.4) | MIC P. aeruginosa ZEM9A (P. aeruginosa ZEM9A; full MH pH 7.4) | MIC P. aeruginosa PA14 4.13 ([3]; full MH pH 7.4) | MIC P. aeruginosa PA14 4.18 ([4]; full MH pH 7.4)
